Test results reported in US11591326B2, “Inhibitors of protein arginine methyltransferase 5 (PRMT5), pharmaceutical products thereof, and methods thereof” (PHARMABLOCK SCIENCES (NANJING), INC., priority 2018, dated 2023).
Like-named read-outs stand apart in the source and are kept apart here.

Legend:
[1] = test system: Huh7; assay: Liver cancer panel proliferation inhibition, Huh7; type: cell-based; settings: Homo sapiens
Description: (§1) Inhibitory ability of compounds synthesized on the proliferation of three panels of cancer cell lines, including 5 breast cancer, 6 liver cancer, and 3 lung cancer cell lines were evaluated. Exponentially growing cells were seeded in the media of choice at various cell densities in 384-well plates with 20 ul per well and incubated overnight at 37° C., 5% CO2 incubator. Compounds were prepared as 10-point, 3-fold serial dilutions in DMSO, beginning at 6 mM. 1 μl of DMSO solutions from the compound stock plates were added to 99 ul of cell media (final top concentration of compound in the assay was 30 uM and the final concentration of DMSO was 0.5%). 20 μL of compound solutions in media were added to each well of plates with cells seeded. After adding compound solutions, assay plates were incubated for 8 and 12 days, respectively, at 37° C., 5% CO2. During this incubation period, cell media was changed every 4 days. After removing old media from cell plates, 40 ul of media with testing compounds dissolved, which were prepared by adding 1 ul of compound DMSO serial solutions to 199 ul of cell media, were added to the assay plates with the same layout as they were initially prepared. After 8 or 12 days, cell viability was measured using the CellTiter-Glo assay kit from Promega (Madison, Wis., USA) by quantitating the ATP present in the cell cultures. 20 μL of CellTiter-Glo reagent was added to each well of the cell plates. Luminescence was read after 10 minute of incubation with the Envision multiple plate reader from PerkinElmer (Waltham, Mass., USA). The concentrations of compounds inhibiting cell viability by 50% (IC50 values) were determined using a sigmoidal dose-response model (variable slopes, four parameters) in Prism 7 (La Jolla, Calif., USA).

[2] = test system: HCC827; assay: Lung cancer panel proliferation inhibition, HCC827; type: cell-based; settings: Homo sapiens
Description: as §1

[3] = Pharmacokinetic study in mouse; type: in vivo, Male CD-1 mice; settings: male, CD-1, plasma; for plasma clearance / Vd: 2 mg/kg, Mouse PK (IV) 2 mpk; for plasma clearance: read-out: Clint (converted); for Vd: read-out: Vss; for AUC(0-t) / Cmax / Tmax / bioavailability / half-life: 10 mg/kg, Mouse PK (PO) 10 mpk; for half-life: read-out: T½ (converted)
Description: (§2) Male CD-1 mice (16-24 g; 6-8 weeks; purchased from Shanghai SLAC laboratory animal CO. LTD; n=18, with 3 per time point) were treated with a single dose of compounds being tested at 2 mg/kg by intravenous tail-vein injection and 10 mg/kg by oral gavage administration, with both doses formulated in 20% N,N-dimethylacetamide in water. Animals upon PO administration were fasted overnight and fed 4 hours after dosing. Animals upon IV administration were free access to food and water. The study was performed in accordance with the guidelines and standards of the Association for Assessment and Accreditation of Laboratory Animal Care (AAALAC International) and the National Institutes of Health.
The animals were anesthetized via isoflurane at the designated time points, and approximately 110 μL of blood sample was collected via retro-orbital puncture or cardiac puncture for stagger bleeding under the anesthesia with Isoflurane inhalation into EDTA-2K tubes. The blood samples were maintained in wet ice first and centrifuged to obtain plasma (2000 g, 4° C., 5 min) within 15 minutes post sampling. Plasma samples were stored at approximately −70° C. until analysis. For plasma samples not diluted, an aliquot of 20 μL sample was added with 200 μL IS (Propranolol, 100 ng/mL) in ACN. The mixture was vortexed for 10 min and centrifuged at 5800 rpm for 10 min. An aliquot of 0.5 μL supernatant was injected for LC-MS/MS analysis. For 10-fold diluted plasma samples, an aliquot of 2 μL sample was added with 18 μL blank diluted plasma, the dilution factor was 10. The followed operation was the same as no diluted plasma samples. Standard calibration curves were constructed by analyzing a series of control plasma aliquots containing Propranolol (100 ng/mL) as an internal standard and 1.0-3,000 ng/mL testing compounds. Compound concentrations were determine with UPLC-MS/MS-33 (Triple Quad™ 6500 Plus).

[4] = Pharmacokinetic study in dog; type: in vivo, male beagle dogs; settings: male, beagle; for plasma clearance / Vd: 2 mg/kg, Dog PK (IV) 2 mpk; for plasma clearance: read-out: Clint (converted); for Vd / AUC(0-t) / Cmax / Tmax / bioavailability / half-life: plasma; for Vd: read-out: Vss; for AUC(0-t) / Cmax / Tmax / bioavailability / half-life: 10 mg/kg, Dog PK (PO) 10 mpk; for half-life: read-out: T½ (converted)
Description: as §2, with “None naïve male beagle dogs (8-10 kg;” for “Male CD-1 mice (16-24 g; 6-8 weeks;”, “Beijing Marshall Biotechnology Co.” for “Shanghai SLAC laboratory animal CO.”, “compound)” for “time point)”, “5% DMSO+45% PEG400” for “20% N,N-dimethylacetamide”
The animal was restrained manually at the designated time points, and approximately 500 μL of each blood/time point was collected via cephalic vein and put on wet ice, then centrifuged at 2000 g for 5 min (4° C.) within 15 minutes post sampling. Plasma samples were stored at approximately −70° C. until analysis. An aliquot of 20 μL sample was added with 200 μL IS (Diclofenac, 100 ng/mL) in ACN. The mixture was vortexed for 10 min and centrifuged at 5800 rpm for 10 min. An aliquot of 1 μL supernatant was injected for LC-MS/MS analysis. For 10×-diluted sample, an aliquot of 2 μL sample was added with 18 μL blank plasma. The sample preparation procedure is same with no-diluted sample. Standard calibration curves were constructed by analyzing a series of control plasma aliquots containing Diclofenac (100 ng/mL) as an internal standard and 3-3,000 ng/mL testing compounds. Compound concentrations were determined with UPLC-MS/MS-22 (Triple Quad™ 6500).

[5] = Huh-7, 192 h, Huh7, 8 days, read-out: IC50 (μM) 8 days
[6] = Huh-7, 288 h, Huh7, 12 days, read-out: IC50 (μM) 12 days
[7] = 192 h, HCC827, 8 days, read-out: IC50 (μM) 8 days
[8] = 288 h, HCC827, 12 days, read-out: IC50 (μM) 12 days

IC50 [1, 5] [µM] | IC50 [1, 6] [µM] | IC50 [2, 7] [µM] | IC50 [2, 8] [µM] | plasma clearance [3] [mL/min/kg] | Vd [3] [L/kg] | AUC(0-t) [3] [ng·h/mL] | Cmax [3] [ng/mL] | Tmax [3] [h] | bioavailability [3] [%] | half-life [3] [h] | plasma clearance [4] [mL/min/kg] | Vd [4] [L/kg] | AUC(0-t) [4] [ng·h/mL] | Cmax [4] [ng/mL] | Tmax [4] [h] | bioavailability [4] [%] | half-life [4] [h] | SMILES
0.28 | 0.072 | 0.19 | 0.11 | 35.7 | 2.48 | 3410 | 3580 | 0.25 | 73.3 | 1.22 | 4.27 | 1.81 ± 0.13 | 35100 ± 7990 | 4440 ± 680 | 2 | 89.8 ± 20.5 | 3.76 ± 0.195 | CC(=O)N1CCC(Nc2ccc3c(c2)C(=O)N(C[C@H](O)CN2CCc4ccccc4C2)CC3)CC1 [Compound 24a, (R)-7-((1-acetylpiperidin-4-yl)amino)-2-(3-(3,4-dihydroisoquinolin-2(1H)-yl)-2-hydroxypropyl)-3,4-dihydroisoquinolin-1(2H)-one]
0.26 | 0.092 | 0.16 | 0.089 | 50.7 | 2.25 | 2720 | 3080 | 0.25 | 83 | 2.86 | 5.17 | 1.56 ± 0.041 | 42100 ± 13200 | 5550 ± 1590 | 1.33 ± 0.577 | 133 ± 38.6 | 4.81 ± 1 | CC(=O)N1CCC(Nc2ccc3c(c2)C(=O)N(C[C@H](O)CN2CCc4ccccc4C2)CCO3)CC1 [Compound 52a, (R)-7-((1-acetylpiperidin-4-yl)amino)-4-(3-(3,4-dihydroisoquinolin-2(1H)-yl)-2-hydroxypropyl)-3,4-dihydrobenzo[f][1,4]oxazepin-5(2H)-one]
0.23 | 0.073 | 0.34 | 0.5 | 44.7 | 1.48 | 2420 | 761 | 2 | 64.9 | 0.798 | 13.5 | 1.32 ± 0.144 | 13300 ± 3280 | 3000 ± 567 | 1.67 ± 0.577 | 105 ± 25.5 | 3.37 ± 0.64 | CC(=O)N1CCC(Nc2cc(C(=O)NC[C@H](O)CN3CCc4ccccc4C3)ncn2)CC1 [Compound C3, reference compound]
